Source: patent US12478601B2, “Dietary product devoid of at least two non essential amino acids” (CANCER RESEARCH TECHNOLOGY LIMITED, priority 2016, dated 2025)
Entries after “also recorded” stand apart in the source; their conditions may differ. Counter-ions that a name gives are not always drawn. Like-named read-outs stand apart in the source and are kept apart here.

How the values were obtained:
[1] = tested on: HCT116, DLD1 and SW480; experiment: Synergy score screen: chemotherapeutic agents in low serine, glycine, cysteine medium, cell counts
Experimental: Human cell lines HCT116, DLD1 and SW480 were seeded into 96-well plates either in complete medium containing serine, glycine and cysteine at 100 uM, with all other amino acids present, or low serine, glycine, cysteine (17-23 uM) medium with all other amino acids present. After 6 hours the stated chemotherapeutic agents were added (at doses of 0.01, 0.1 and 1 uM) to the wells and cells were incubated for a further 48 hours. After this time cells were formalin fixed and stained with a fluorescent nuclear stain for cell counting on an automated (Operetta) plate reader.

[2] = tested on: intestinal tumour organoids derived from a VillincreER; APCfl/fl mouse; experiment: Intestinal tumour organoid growth (diameter) +/− serine and glycine, +/− drug; assay type: cell-based; details: two days
Experimental: ADF=Advanced DMEM F/12, with 2 mM glutamine, 1% of penicillin/streptomycin solution, 0.1% of AlbuMAX I BSA, 10 mM HEPES (all Gibco/Life Technologies). Adenomas were removed from the small intestine of mice and cut into smaller pieces and washed 5 times with ice cold PBS. Pieces were incubated in 5 mM EDTA for 10 min at 4° C. on a roller. Crypts were washed 2 times with ice cold PBS to remove EDTA and incubated in 10× trypsin for 30 min at 37° C. The crypt-enriched supernatant was collected and washed approximately 5 times with 5 ml ADF through mechanical pipetting. Crypts were pelleted via centrifugation at 1,200 rpm for 5 min. Crypts were re-suspended in growth factor reduced matrigel (BD Biosciences) and 20 μl was plated per well in a 12-well plate. Matrigel was allowed to solidify for 30 min in a 37° C. incubator before appropriate ADF was added supplemented with 0.05 μg/ml EGF and 0.1 μg/ml noggin (Total volume per well 1 ml). Crypts were split by harvesting in ice cold PBS and spun down at 600 rpm for 3 min. Supernatant was aspirated and the pellet dissociated with 100 μl ice cold PBS using mechanical pipetting. 5 ml of PBS was added to tube and spun own at 600 rpm for 3 min, repeated until supernatant was clear of debris. The final crypt pellet was re-suspended with growth factor reduced matrigel and plated as before. For serine/glycine starvation, amino acid free Advanced DMEM F/12 (Gibco/Life Technologies) was used to construct assay medium for organoids with or without serine and glycine, containing all other amino acids. […]
Organoids were seeded in the stated media with or without metformin/daunorubicin (both from Sigma) and allowed to grow for two days. Images for size quantification (performed using ImageJ software) were taken using a light microscope then organoids were fixed in 4% paraformaldehyde. ROS damage was assessed by immunostaining organoids with Anti-malondialdehyde (MDA) (Abcam, ab6463), with Alexa Fluor 594 secondary antibody (Thermo Fisher Scientific). […]

[3] = tested on: VillincreER; APCfl/fl organoids; experiment: Organoid malondialdehyde (MDA) immunostaining (ROS damage); assay type: cell-based, mouse
Experimental: Organoids were seeded in the stated media with or without metformin/daunorubicin (both from Sigma) and allowed to grow for two days. Images for size quantification (performed using ImageJ software) were taken using a light microscope then organoids were fixed in 4% paraformaldehyde. ROS damage was assessed by immunostaining organoids with Anti-malondialdehyde (MDA) (Abcam, ab6463), with Alexa Fluor 594 secondary antibody (Thermo Fisher Scientific). Images were captured on an Olympus FV1000 inverted laser scanning confocal microscope and MDA staining was quantified using ImageJ software.

[4] = tested on: DLD1 and SW480 cells; experiment: Metformin in vitro assay in APC-truncated colorectal cell lines, cell number; assay type: cell-based, Human; details: three days
Experimental: DLD1 and SW480 cells were seeded into 24-well plates and allowed to adhere overnight. Cells were washed with PBS and received either assay medium with or without serine and glycine, with or without metformin at the stated doses and allowed to grow for three days. Representative wells were photographed using a light microscope and counted using a Casy TT cell counter (FIG. 19, panel d). For the dose-response experiment (FIG. 23, panel e) cells were seeded in the same way, either in assay medium without serine and glycine, or in assay medium with low serine and glycine (10 uM), triplicate wells were counted after three days.

[5] = tested on: intestinal tumours (APCMin/+)
Text: (§1) On normal chow, dietary amino acids are derived from whole proteins contained in the raw ingredients (wheat, wheatfeed, barley, de-hulled extracted toasted soya, maize and fish meal), with a small amount of purified lysine added as a supplement. […] “Diet 2-Control” contained all essential amino acids plus serine, glycine, glutamine, arginine, cystine, tyrosine, alanine, proline, glutamate and asparagine; “Diet 2-No Ser, No Gly/Diet 2-SG-free” was the same as Diet 2-Control, but without serine and glycine, with the other amino acid levels increased proportionally to achieve the same total amino acid content. “Diet 2” formulations were used for the Eμ-Myc-Tigar^−/− cohort (FIG. 19, panel f). All other cohorts received the previously published “Diet 1” formulations.
Mus Musculus cohorts were housed in a barriered facility proactive in environmental enrichment. The Eμ-Myc11, ApcMin/+, Lgr5creER; Apcf1/f1 and Pdx1cre; KrasG12D; Trp53f1/+ or Trp53R172H/+ mice/models have been previously described. Mixed male and female populations were used for each genotype. […] Eμ-Myc, and ApcMin/+ mice were at least 20 generations C57BL/6J. Eμ-Myc; Tigarf1/f1 mice were at least 50% C57BL/6J. Mice were put on the appropriate diet at the following times: Eμ-Myc pure bred 60 days post-natal, Eμ-Myc; Tigarf1/f1 55 days post-natal, ApcMin/+80 days post-natal, Lgr5creER; Apcf1/f1 7 days post-induction, Pdx1cre; KrasG12D; Trp53f1/+ or Trp53R172H/+60 days post-natal. […] For the metformin experiment, ApcMin/+ mice were given 200 mg/kg/day in their drinking water, starting 4 days after the diet change. All mice were taken to clinical end-point. Intestines from ApcMin/+ mice were fixed in methacarn (4:2:1 ratio of methanol, chloroform, acetic acid) to facilitate scoring of tumour number and area (width×length).
Samples were prepared in cold (−20° C.) lysis solvent (LS) consisting of methanol, acetonitrile, and H2O (50:30:20). […] Tissue samples were snap frozen and stored at −80° C. Prior to lysis, frozen samples were weighed then homogenized in 1 ml cold LS using a Precellys homogeniser (Bertin Technologies). Lysates were cleared of protein by centrifugation and lysate concentrations were normalized post-homogenisation with LS based on weight. Extracts were analysed on an LCMS platform consisting of an Accela 600 LC system and an Exactive mass spectrometer (Thermo Scientific). A SeQuant ZIC-pHILIC column (2.1 mm×150 mm, 5 μm) (Merck) was used to separate the metabolites with the mobile phase mixed by A=Ammonium carbonate 20 mM (adjusted to pH 9.4) and B=Acetonitrile. A gradient program starting at 20% of A and after 2 mins linearly increasing to 80% at 17 min was used followed by washing and re-equilibration steps. The total run time of the method was 25 min. The LC stream was desolvated and ionised in the HESI probe. The Exactive mass spectrometer was operated in full scan mode over a mass range of 75-1,000 m/z at a resolution of 50,000 with polarity switching. The raw data was analysed by LCquan (Thermo Scientific) and MZMine 2.10 for metabolite identification and quantification.
Mus Musculus cohorts were housed in a barrier facility proactive in environmental enrichment. […] Mixed male and female populations were used for each genotype.

[6] = tested on: Colorectal and breast cancer cell lines; experiment: Rescue from cysteine starvation by homocysteine supplementation; assay type: cell-based; details: homocysteine 0.2 mM & 0.8 mM, three days
Experimental: FIG. 39. […] Colorectal and breast cancer cell lines were grown in 24-well plates. Basal medium was formulated (based on RPMI medium) lacking cysteine but containing all 19 other essential and non-essential amino acids. This basal medium was supplemented with the stated components; cysteine 0.4 mM (+Cys), homocysteine 0.2 mM & 0.8 mM (HC) and grown for three days. Data are average of three wells. Error bars=STDEV.
Cells (4×10^4-1×10^5) were seeded in complete RPMI or DMEM medium in 24-well plates and allowed to adhere overnight. Cells were then washed with PBS and received assay medium supplemented with the stated amino acids/metabolites/drugs. Assay medium was formulated based on RPMI-1640 medium but lacking amino acids, which were added individually depending on the assay. Assay medium was also supplemented with additional vitamin B6 (20 uM), a co-factor for cysteine synthesis. Cells were counted (using Casy TT cell counter, Innovatis, Roche Applied Science) at the stated time-points, using a “time=0” plate to calculate relative cell number from time of medium change.

[7] = tested on: lymphoma (based on Eμ-Myc expression)
Text: as §1
Mus Musculus cohorts were housed in a barriered facility proactive in environmental enrichment. The Eμ-Myc11, ApcMin/+, Lgr5creER; Apcf1/f1 and Pdx1cre; KrasG12D; Trp53f1/+ or Trp53R172H/+ mice/models have been previously described. Mixed male and female populations were used for each genotype. […] Eμ-Myc, and ApcMin/+ mice were at least 20 generations C57BL/6J. Eμ-Myc; Tigarf1/f1 mice were at least 50% C57BL/6J. Mice were put on the appropriate diet at the following times: Eμ-Myc pure bred 60 days post-natal, Eμ-Myc; Tigarf1/f1 55 days post-natal, ApcMin/+80 days post-natal, Lgr5creER; Apcf1/f1 7 days post-induction, Pdx1cre; KrasG12D; Trp53f1/+ or Trp53R172H/+60 days post-natal. […] For the metformin experiment, ApcMin/+ mice were given 200 mg/kg/day in their drinking water, starting 4 days after the diet change. All mice were taken to clinical end-point. […]
Samples were prepared in cold (−20° C.) lysis solvent (LS) consisting of methanol, acetonitrile, and H2O (50:30:20). […] Extracts were analysed on an LCMS platform consisting of an Accela 600 LC system and an Exactive mass spectrometer (Thermo Scientific). […] The raw data was analysed by LCquan (Thermo Scientific) and MZMine 2.10 for metabolite identification and quantification. […]

[8] = average synergy score for three colorectal cells lines, drug at 0.01, 0.1 and 1 uM for 48 hours, low serine, glycine, cysteine (17-23 uM) vs complete medium (100 uM)

Compound: CN(C)C/C=C/C(=O)Nc1cc2c(Nc3ccc(F)c(Cl)c3)ncnc2cc1O[C@H]1CCOC1 [Afatinib]
- SYNERGY SCORE [1, 8]: 1.18

Compound: CC(C)(C#N)c1cc(Cn2cncn2)cc(C(C)(C)C#N)c1 [Anastrozole]
- SYNERGY SCORE [1]: 1.43

Compound: COc1cc(Nc2c(C#N)cnc3cc(OCCCN4CCN(C)CC4)c(OC)cc23)c(Cl)cc1Cl [Bosutinib]
- SYNERGY SCORE [1, 8]: 1.95

Compound: COc1cc2nccc(Oc3ccc(NC(=O)C4(C(=O)Nc5ccc(F)cc5)CC4)cc3)c2cc1OC [Cabozantinib]
- SYNERGY SCORE [1, 8]: 4.51

Compound: CC(C)C[C@H](NC(=O)[C@H](CCc1ccccc1)NC(=O)CN1CCOCC1)C(=O)N[C@@H](Cc1ccccc1)C(=O)N[C@@H](CC(C)C)C(=O)[C@@]1(C)CO1 [Carfilzomib]
- SYNERGY SCORE [1, 8]: 1.65

Compound: Cc1cc(Nc2ncc(Cl)c(Nc3ccccc3S(=O)(=O)C(C)C)n2)c(OC(C)C)cc1C1CCNCC1 [Ceritinib]
- SYNERGY SCORE [1, 8]: 2.56

Compound: N.N.[Cl][Pt][Cl] [Cisplatin]
- SYNERGY SCORE [1, 8]: 1.79

Compound: COc1cccc2c1C(=O)c1c(O)c3c(c(O)c1C2=O)C[C@@](O)(C(C)=O)C[C@@H]3O[C@H]1C[C@H](N)[C@H](O)[C@H](C)O1 [Daunorubicin]
- tumour organoid growth ([2]; with serine & glycine starvation): complements serine and glycine starvation; also recorded: decrease tumour organoid growth
- reactive oxygen species levels in tumour-organoids ([3]; with serine & glycine starvation, two days): increase reactive oxygen species levels

Compound: COc1cccc2c1C(=O)c1c(O)c3c(c(O)c1C2=O)C[C@@](O)(C(=O)CO)C[C@@H]3O[C@H]1C[C@H](N)[C@H](O)[C@H](C)O1 [Doxorubicin hydrochloride]
- SYNERGY SCORE [1, 8]: 1.76

Compound: COc1cccc2c1C(=O)c1c(O)c3c(c(O)c1C2=O)C[C@@](O)(C(=O)CO)C[C@@H]3O[C@H]1C[C@H](N)[C@@H](O)[C@H](C)O1 [Epirubicin hydrochloride]
- SYNERGY SCORE [1, 8]: 1.40

Compound: CO[C@H]1C[C@@H]2CC[C@@H](C)[C@@](O)(O2)C(=O)C(=O)N2CCCC[C@H]2C(=O)O[C@H]([C@H](C)C[C@@H]2CC[C@@H](OCCO)[C@H](OC)C2)CC(=O)[C@H](C)/C=C(\C)[C@@H](O)[C@@H](OC)C(=O)[C@H](C)C[C@H](C)/C=C/C=C/C=C/1C [Everolimus]
- SYNERGY SCORE [1, 8]: 3.33

Compound: C=C1C[C@@H]2[C@H](CC[C@]3(C)C(=O)CC[C@@H]23)[C@@]2(C)C=CC(=O)C=C12 [Exemestane]
- SYNERGY SCORE [1, 8]: 2.14

Compound: Nc1nc(F)nc2c1ncn2[C@@H]1O[C@H](COP(=O)(O)O)[C@@H](O)[C@@H]1O [Fludarabine phosphate]
- SYNERGY SCORE [1]: 2.76

Compound: CC[C@H](Nc1ncnc2[nH]cnc12)c1nc2cccc(F)c2c(=O)n1-c1ccccc1 [Idelalisib]
- SYNERGY SCORE [1, 8]: 4.05

Compound: Nc1cccc2c1CN(C1CCC(=O)NC1=O)C2=O (stereo not drawn) [Lenalidomide]
- SYNERGY SCORE [1, 8]: 1.94

Compound: CN(C)C(=N)N=C(N)N [Metformin]
- organoid growth, interaction with serine and glycine starvation ([2]; low dose metformin): antagonizes serine and glycine starvation; also recorded: did not have a synergistic effect
- organoid growth, interaction with serine starvation ([2]; metformin 1000 uM): synergise with serine starvation
- cell number ([4]; metformin at 20 µM): trend for increased cell number
- synergistic effect with serine/glycine starvation ([4]; metformin at concentrations found in vivo): did not have a synergistic effect
- reactive oxygen species (ROS) levels ([3]; high dose metformin): increase with high dose metformin
- reactive oxygen species (ROS) levels ([3]; low dose metformin): decrease with low dose metformin
- metformin levels in serum and tissue ([5]; 200 mg/kg/day in drinking water, LCMS): relatively low; also recorded: too low to potentiate the anti-cancer effect
- average tumour area ([5]; metformin 200 mg/kg/day): without a substantial change in average tumour area
- impact on systemic metabolism (serum glucose and lactate) ([5]; metformin 200 mg/kg/day): minimal impact on systemic metabolism; also recorded: little impact on systemic metabolism
- SYNERGY SCORE [1, 8]: 7.53

Compound: O=C(c1cc(Cc2n[nH]c(=O)c3ccccc23)ccc1F)N1CCN(C(=O)C2CC2)CC1 [Olaparib]
- SYNERGY SCORE [1, 8]: 1.46

Compound: Cc1ccc(C(=O)Nc2ccc(CN3CCN(C)CC3)c(C(F)(F)F)c2)cc1C#Cc1cnc2cccnn12 [Ponatinib]
- SYNERGY SCORE [1]: 1.00

Compound: CNC(=O)c1cc(Oc2ccc(NC(=O)Nc3ccc(Cl)c(C(F)(F)F)c3)c(F)c2)ccn1 [Regorafenib]
- SYNERGY SCORE [1, 8]: 2.29

Compound: C/C=C1\NC(=O)[C@H]2CSSCC/C=C/[C@H](CC(=O)N[C@H](C(C)C)C(=O)N2)OC(=O)[C@H](C(C)C)NC1=O [Romidepsin]
- SYNERGY SCORE [1]: 2.03

Compound: CNC(=O)c1cc(Oc2ccc(NC(=O)Nc3ccc(Cl)c(C(F)(F)F)c3)cc2)ccn1 [Sorafenib]
- SYNERGY SCORE [1, 8]: 2.26

Compound: CO[C@H]1C[C@@H]2CC[C@@H](C)[C@@](O)(O2)C(=O)C(=O)N2CCCC[C@H]2C(=O)O[C@H]([C@H](C)C[C@@H]2CC[C@@H](OC(=O)C(C)(CO)CO)[C@H](OC)C2)CC(=O)[C@H](C)/C=C(\C)[C@@H](O)[C@@H](OC)C(=O)[C@H](C)C[C@H](C)/C=C/C=C/C=C/1C [Temsirolimus]
- SYNERGY SCORE [1, 8]: 3.90

Compound: CS(=O)(=O)c1ccc(C(=O)Nc2ccc(Cl)c(-c3ccccn3)c2)c(Cl)c1 [Vismodegib]
- SYNERGY SCORE [1]: 1.53

Compound: O=C(CCCCCCC(=O)Nc1ccccc1)NO [Vorinostat]
- SYNERGY SCORE [1, 8]: 4.94

Compound: N[C@@H](CCS)C(=O)O [homocysteine]
- rescue from cysteine starvation [6]: rescued from cysteine starvation; also recorded: significant rescue from cysteine starvation

Compound: [H]/N=C(/N)N/C(=N/[H])NCCc1ccccc1 [phenformin]
- tolerability ([7]; 100 mg/kg/day by gavage, mice on normal diet): tolerated
- mice already recruited that did not succumb to toxicity ([7]; 100 mg/kg/day with serine and glycine deficient diet): 7/14
- survival, diet with phenformin compared to serine and glycine free diet alone ([7]; 100 mg/kg/day, not statistically significant): trend for improved survival

Compound: Arsenic trioxide
- SYNERGY SCORE [1]: 2.52
